Assay [1] addresses T1, cloned human P2Y1 receptors (Homo sapiens (Human), UniProt P47900). Kind of assay: Binding Assay A - membrane binding assay, [33P] 2MeS-ADP (WGA FlashPlate). The settings on record: values marked * in Table 1; 0.5 nM [33P] 2MeS-ADP, Cheng-Prusoff; read-out: P2Y1 Ki (nM) using binding assay A. From the text:
A membrane binding assay was used to identify inhibitors of [^33P] […] The cDNA clone for human P2Y1 was obtained from Incyte Pharmaceuticals and its sequence confirmed by established techniques (for a compendium of techniques used see Ausubel, F. et al., Current Protocols in Molecular Biology, John Wiley and Sons, NY, NY (1995)). The essential coding sequences were subcloned into pCDNA 3.1 (Invitrogen) to produce a P2Y1 expression construct. This construct was then transfected into the human embryonic kidney cell line HEK-293 and stable transfectants selected in GENETICIN® (G418 sulfate; Life Technologies). […] Membranes were prepared by growing HEK293 #49 in 150 mm dishes in DMEM/10% FBS in the presence of 1 mg/ml G418 until cells were 80-90% confluent. Plates were then washed with cold (4° C.) D-PBS twice and cells harvested by scraping into 10 mL D-PBS. Cells were pelleted by centrifugation (1,000 g, 10 min, 4° C.) and the resulting pellet resuspended in Lysis Buffer (10 mM Tris (7.4), 5 mM MgCl2 containing Complete protease inhibitor cocktail (Roche Cat #1873580) as recommended by the manufacturer). The suspension was then homogenized in a Dounce homogenizer (10-15 strokes; B pestle, on ice) and the homogenate spun at 1,000 g, 4° C., 5 min to pellet large debris. The supernatant was centrifuged at 150,000 g, 4° C., for 1 hour and the resulting membrane pellet resuspended in 0.5-1 mL of Buffer B (15 mM HEPES (7.4), 145 mM NaCl, 0.1 mM MgCl2, 5 mM EDTA, 5 mM KCl) and stored at −70° C. until used.
Binding reactions were performed in WGA FLASHPLATE®s (PerkinElmer Life Sciences, Cat # SMP105A) in a volume of 200 μL containing ˜45 fmol of P2Y1 receptor (5 μg of total protein), 0.5 nM [^33P] […] Reactions were allowed to proceed to completion at room temperature for 1 hour and then the aqueous solution aspirated. Plates were sealed and the residual [^33P] bound to the plate determined by scintillation counting.

Assay [2] has as its system human platelet rich plasma (PRP). Kind of assay: ADP induced platelet aggregation assay. The settings on record: Homo sapiens, Platelet, 5 min, read-out: PA IC50 (μM) @ 10 μM ADP, human PRP, 10 μM ADP, AUC at 5 minute.
The target in assay [3] is T1, cloned human P2Y1 receptors. In words: Binding Assay B - Scintillation Proximity Assay (SPA) for P2Y1 binding, [33P] 2MeS-ADP. The settings on record: SPA, 0.3 nM [33P] 2MeS-ADP, Cheng-Prusoff; read-out: P2Y1 Ki (nM) using binding assay B. The method, then: Binding Assay B—Scintillation Proximity Assay (SPA) for P2Y1 Binding
A SPA membrane binding assay was used to identify inhibitors of [^33P] […] Reactions were allowed to proceed to completion at room temperature for 1 hour followed by centrifugation of the plate for 5 min. About 40 μL of the aqueous solution was aspirated. Plates were sealed and the [^33P]

The structures appear in SMILES notation.

T1 sequence (P47900 whole entry): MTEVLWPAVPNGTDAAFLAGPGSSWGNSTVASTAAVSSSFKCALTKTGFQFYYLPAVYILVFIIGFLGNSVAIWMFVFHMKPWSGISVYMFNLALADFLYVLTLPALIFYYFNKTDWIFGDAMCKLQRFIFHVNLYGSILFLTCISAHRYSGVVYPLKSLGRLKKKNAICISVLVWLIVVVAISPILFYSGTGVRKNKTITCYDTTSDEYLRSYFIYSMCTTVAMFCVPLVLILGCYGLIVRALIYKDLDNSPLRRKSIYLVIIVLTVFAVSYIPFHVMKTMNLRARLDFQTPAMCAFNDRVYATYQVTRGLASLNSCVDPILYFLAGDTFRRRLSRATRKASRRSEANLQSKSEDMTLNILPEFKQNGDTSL

On to `CC1(C)CN(c2ccccc2NC(=O)Nc2ccc(OC(F)(F)F)cc2)c2c(O)ccc(-c3ccc(F)cn3)c21` [Example 123, 1-(2-(4-(5-Fluoropyridin-2-yl)-7-hydroxy-3,3-dimethylindolin-1-yl)phenyl)-3-(4-(trifluoromethoxy)phenyl)urea], for which, in assay [1], the Ki was found to be 4.5 nM. For the same compound, the IC50 in assay [2] came out at 0.43 µM.
With `CC1(C)CN(c2ccccc2NC(=O)Nc2csc(C(F)(F)F)n2)c2c(O)cc(F)c(-c3ccc(Cl)cc3)c21` [Example 218, 1-(2-(4-(4-Chlorophenyl)-5-fluoro-7-hydroxy-3,3-dimethylindolin-1-yl)phenyl)-3-(2-(trifluoromethyl)thiazol-4-yl)urea], in assay [1], the Ki was 9.3 nM. In assay [2], the IC50 came out at 0.37 µM.
The like results for `CCC1(CC)CN(c2ccccc2NC(=O)Nc2nc3ccc(F)cc3s2)c2c(O)ccc(Cl)c21` [Example 49, 1-(2-(4-Chloro-3,3-diethyl-7-hydroxyindolin-1-yl)phenyl)-3-(6-fluorobenzo[d]thiazol-2-yl)urea] were, in that order, 6.6 nM and 0.18 µM.
In the same order, the values of `CC1(C)CN(c2ccccc2NC(=O)Nc2ccc(OC(F)(F)F)cc2)c2c(O)ccc(-c3nccs3)c21` [Example 124, 1-(2-(7-Hydroxy-3,3-dimethyl-4-(thiazol-2-yl)indolin-1-yl)phenyl)-3-(4-(trifluoromethoxy)phenyl)urea] are 3.4 nM and 0.82 µM.
On to `CC1(C)CN(c2ccccc2NC(=O)Nc2nc3ccc(F)cc3s2)c2c(O)ccc(-c3nc4cc(F)ccc4s3)c21` [Example 171, 1-(6-Fluorobenzo[d]thiazol-2-yl)-3-(2-(4-(5-fluorobenzo[d]thiazol-2-yl)-7-hydroxy-3,3-dimethylindolin-1-yl)phenyl)urea], for which the Ki in assay [1] turned out to be 8.7 nM. The IC50 in assay [2] came to 0.36 µM.
The like results for `CCC1(CC)CN(c2ccccc2NC(=O)Nc2ccc(C3CCCN3CC(C)C)cc2)c2c1ccc(F)c2O` (stereo not shown) [Example 36, 1-(2-(3,3-Diethyl-6-fluoro-7-hydroxyindolin-1-yl)phenyl)-3-(4-(1-isobutylpyrrolidin-2-yl)phenyl)urea] were, in that order, 5.7 nM and 0.21 µM.
On to `CCC1(CC)CN(c2ccccc2NC(=O)Nc2nc(C(C)C)ns2)c2c(O)ccc(Cl)c21` [Example 48, 1-(2-(4-Chloro-3,3-diethyl-7-hydroxyindolin-1-yl)phenyl)-3-(3-isopropyl-1,2,4-thiadiazol-5-yl)urea], for which the Ki in assay [1] is 7 nM. The IC50 in assay [2] was determined as 0.48 µM.
For `CC1(C)CN(c2ccccc2NC(=O)Nc2ccc(OC(F)(F)F)cc2)c2c(O)ccc(-c3nc4ccc(F)cc4s3)c21` [Example 174, 1-(2-(4-(6-Fluorobenzo[d]thiazol-2-yl)-7-hydroxy-3,3-dimethylindolin-1-yl)phenyl)-3-(4-(trifluoromethoxy)phenyl)urea], the Ki in assay [1] amounted to 6.3 nM. Further, the IC50 in assay [2] was 0.32 µM.
The like results for `CC1(C)CN(c2ccccc2NC(=O)Nc2nc3ccc(Cl)nc3s2)c2c(O)ccc(-c3nc4cc(F)ccc4s3)c21` [Example 173, 1-(5-Chlorothiazolo[5,4-b]pyridin-2-yl)-3-(2-(4-(5-fluorobenzo[d]thiazol-2-yl)-7-hydroxy-3,3-dimethylindolin-1-yl)phenyl)urea] were, in that order, 20.7 nM and 0.5 µM.
In the same order, the values of `CC1(C)CN(c2ccccc2NC(=O)Nc2nc3ccc(F)cc3s2)c2c(O)ccc(-c3nc4ccc(F)cc4s3)c21` [Example 175, 1-(6-Fluorobenzo[d]thiazol-2-yl)-3-(2-(4-(6-fluorobenzo[d]thiazol-2-yl)-7-hydroxy-3,3-dimethylindolin-1-yl)phenyl)urea] are 17.6 nM and 0.35 µM.
As to `CC1(C)CN(c2ccccc2NC(=O)Nc2nc3ccc(Cl)nc3s2)c2c(O)ccc(-c3nc4ccc(F)cc4s3)c21` [Example 176, 1-(5-Chlorothiazolo[5,4-b]pyridin-2-yl)-3-(2-(4-(6-fluorobenzo[d]thiazol-2-yl)-7-hydroxy-3,3-dimethylindolin-1-yl)phenyl)urea], the Ki in assay [1] came to 13 nM. Also, in assay [2], the IC50 came out at 0.35 µM.
The like results for `CC(C)c1cnc(-c2ccc(O)c3c2C(C)(C)CN3c2ccccc2NC(=O)Nc2ccc(OC(F)(F)F)cc2)nc1` [Example 126, 1-(2-(7-Hydroxy-4-(5-isopropylpyrimidin-2-yl)-3,3-dimethylindolin-1-yl)phenyl)-3-(4-(trifluoromethoxy)phenyl)urea] were, in that order, 4.1 nM and 0.3 µM.
In the same order, the values of `CC(C)c1nc(-c2ccc(O)c3c2C(C)(C)CN3c2ccccc2NC(=O)Nc2ccc(OC(F)(F)F)cc2)cs1` [Example 127, 1-(2-(7-Hydroxy-4-(2-isopropylthiazol-4-yl)-3,3-dimethylindolin-1-yl)phenyl)-3-(4-(trifluoromethoxy)phenyl)urea] are 4.7 nM and 0.28 µM.
The like results for `CC1(C)CN(c2ccccc2NC(=O)Nc2ccc(OC(F)(F)F)cc2)c2c(O)ccc(-c3ccc(C(F)(F)F)cn3)c21` [Example 125, 1-(2-(7-Hydroxy-3,3-dimethyl-4-(5-(trifluoromethyl)pyridin-2-yl)indolin-1-yl)phenyl)-3-(4-(trifluoromethoxy)phenyl)urea] were, in that order, 4.8 nM and 0.15 µM.
Take `CC1(C)CN(c2ccccc2NC(=O)Nc2csc(C(F)(F)F)n2)c2c(O)cc(F)c(-c3ccc(C(F)(F)F)cc3)c21` [Example 217, 1-(2-(5-Fluoro-7-hydroxy-3,3-dimethyl-4-(4-(trifluoromethyl)phenyl)indolin-1-yl)phenyl)-3-(2-(trifluoromethyl)thiazol-4-yl)urea]: the Ki in assay [1] came out at 8 nM. In addition, the IC50 in assay [2] worked out at 0.16 µM.
Take `CC(C)(C)CN1CCCC1c1ccc(NC(=O)Nc2ccccc2N2CC(C)(C)c3c(-c4ccc(F)cc4)ccc(O)c32)cc1` (stereo not shown) [Example 202, 1-(2-(4-(4-Fluorophenyl)-7-hydroxy-3,3-dimethylindolin-1-yl)phenyl)-3-(4-(1-neopentylpyrrolidin-2-yl)phenyl)urea]: the Ki in assay [3] was 5.7 nM. The IC50 in assay [2] stood at 0.09 µM.
The like results for `Cc1nnc(-c2ccc(O)c3c2C(C)(C)CN3c2ccccc2NC(=O)Nc2ccc(OC(F)(F)F)cc2)o1` [Example 86, 1-(2-(7-Hydroxy-3,3-dimethyl-4-(5-methyl-1,3,4-oxadiazol-2-yl)indolin-1-yl)phenyl)-3-(4-(trifluoromethoxy)phenyl)urea] were, in that order, 22.2 nM and 5 µM.
